In patent US20140148500A1, “PROGRAMMABLE SELF-ASSEMBLED NANOSTRUCTURES BASED ON SIDECHAIN-MODIFIED PNA FOR THE MULTIVALENT DISPLAY OF LIGANDS” (priority 2010, published 2014):
Where “and” joins values, the source holds several entries; their conditions need not be identical. Equal values may be shown once.

System: C32 cells
Assay: Cell adhesion assay, IC50 of multivalent RGD constructs (method of Sipes et al.)
Format: cell-based
Conditions: read-out: IC50 Data (nM), RGD control result in parenthesis, unnormalized, control run alongside the data point it follows
Description: Multi 1 indicates one PNA construct associated with the DNA. Multi 2 indicates two PNA construct associated with the DNA and so on. […] In the constructs depicted herein, the designator in parentheses (T5, for example) represents the number of thymine bases in the DNA sequence that is inserted to create a spacer between adjacent PNA binding portions of the DNA. T0 represents the absence of any spacer thymine bases. […] “x” indicates no data is available for that experiment. […] Constructs from Example 5 were utilized herein.

In the case of `N=C(N)NCCC[C@@H]1NC(=O)[C@H](CCCCN)NC(=O)[C@@H](Cc2ccccc2)NC(=O)[C@H](CC(=O)O)NC(=O)CNC1=O` [RGD], the IC50 is reported as 475 nM and 329 nM and 690 nM.
